# Laboratory results published in PubChem BioAssay (NCI).
#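 Each compound was tested at five concentrations against cells in 96-well plates for 48 hours. Abbreviation: GI50, concentration required for 50% inhibition of growth. Definition used: TGI = concentration required for complete inhibition of growth.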 Where a SMILES comes first, the peptide text is derived from it. [ ]: non-standard residue; d: D form. The star is where a group is joined. NMeAc5c = CNC1(C(=O)O)CCCC1; Boc = CC(C)(C)OC(=O)*; OBn = c1ccc(CO*)cc1
# Key:
# Test in all cases: DTP human tumour cell line panel, 48 h
# [1] = system: RPMI-8226 leukemia
# [2] = system: SF-295 CNS
# [3] = system: OVCAR-3 ovarian
# [4] = system: PC-3 prostate
# [5] = system: T-47D breast
# [6] = system: NCI/ADR-RES ovarian
Compound,TGI [1],TGI [2],TGI [3],TGI [4],TGI [5],TGI [6],GI50 [1],GI50 [2],GI50 [3],GI50 [4],GI50 [5],GI50 [6]
N#Cc1c(N2CCCC2)ncn(-c2ccccc2)c1=O,> 100 µM,> 100 µM,> 100 µM,> 100 µM,> 100 µM,> 100 µM,,,,,,
O=C(N/N=C(/COc1ccc(Cl)cc1)N=Cc1ccncc1)c1ccncc1,> 100 µM,> 100 µM,> 100 µM,> 100 µM,> 100 µM,> 100 µM,,,,,,
COc1ccc(-c2cc(O)c3nc4ccccc4n3c2)cc1,> 100 µM,> 100 µM,> 100 µM,> 100 µM,,> 100 µM,,,,,,
C=CCN1C[C@H](C)N([C@H](c2ccc(C(=O)NC(CC)CC)cc2)c2cccc(OC)c2)C[C@H]1C,,> 100 µM,> 100 µM,> 100 µM,> 100 µM,> 100 µM,,,,,,
O=[N+]([O-])c1ccc2c(c1)c(OCc1ccccc1)nn2Cc1ccccc1,> 100 µM,> 100 µM,> 100 µM,> 100 µM,> 100 µM,> 100 µM,,,,,,
COc1ccc(N/N=C2\CCOc3ccc(C)cc3C2=O)cc1,84.1 µM,> 100 µM,> 100 µM,> 100 µM,42.4 µM,> 100 µM,,,,,,
CC1(C)OC(=O)N(c2ccccc2)C12C=Cc1cc([N+](=O)[O-])cc([N+](=O)[O-])c1O2 (stereo unspecified),> 100 µM,> 100 µM,> 100 µM,> 100 µM,> 100 µM,> 100 µM,,,,,,
CN1C(=O)C2CCC(=O)N2c2cccnc21 (stereo unspecified),> 100 µM,> 100 µM,> 100 µM,,> 100 µM,> 100 µM,,,,,,
CC(C)(C)OC(=O)NCCCCC1NC(=O)[C@@H]2Cc3c([nH]c4ccccc34)C(C3CCCCC3)N2C1=O (stereo partly specified),41 µM,63 µM,47.5 µM,> 100 µM,> 100 µM,> 100 µM,,,,,,
CCOC(=O)c1csc(NC(=O)CN2CCOCC2)n1,> 100 µM,> 100 µM,> 100 µM,> 100 µM,> 100 µM,> 100 µM,,,,,,
CC(=O)O[C@@H]1[C@H](C(C)C)[C@@H](OC(C)=O)C/C(C)=C/CC[C@]2(C)O[C@@H]12,> 100 µM,> 100 µM,> 100 µM,> 100 µM,> 100 µM,> 100 µM,,,,,,
O=C1c2ccccc2-c2c1c1ccccc1c(=O)n2CCNCCNCCNCCn1c2c(c3ccccc3c1=O)C(=O)c1ccccc1-2,,7.58 µM,4.91 µM,1.33 µM,> 100 µM,> 54.9 µM,0.0499 µM,1.4 µM,1.16 µM,0.373 µM,2.95 µM,3.9 µM
COc1ccc(-c2c(C#N)c(-c3ccc(C)cc3)n(NS(=O)(=O)c3ccc(C)cc3)c(=O)c2C#N)cc1,46.3 µM,> 100 µM,,> 100 µM,,> 100 µM,,,,,,
CCOC(=O)CSc1c(C(=O)OCC)c(=O)n(-c2ccccc2)c(=S)n1-c1ccccc1,> 100 µM,> 100 µM,> 100 µM,> 100 µM,> 100 µM,8.6 µM,,,,,,
O=C1CC(NC(=O)C(F)(F)F)c2c(Br)sc(N3CCNCC3)c21 (stereo unspecified),,> 100 µM,> 100 µM,> 100 µM,> 100 µM,> 100 µM,,,,,,
C#CCNC(CS)C(=O)O (stereo unspecified),> 100 µM,> 100 µM,> 100 µM,> 100 µM,> 100 µM,> 100 µM,,,,,,
CC1CCC(n2c3cnccc3c3cnc(Nc4ccc5c(n4)CCN(C(=O)CO)C5)nc32)CC1 (stereo unspecified),> 100 µM,,> 100 µM,,,,1.43 µM,,> 100 µM,,,
O=C1CSC(c2ccc(Cl)cc2)N1c1ccc(Oc2ccc(Cl)cc2)c(Cl)c1 (stereo unspecified),63.8 µM,30.8 µM,29 µM,31.3 µM,24.9 µM,35.3 µM,,,,,,
COc1cc2nc3n(c(=O)c2cc1OC)-c1ccc([N+](=O)[O-])cc1C3=O,> 100 µM,> 100 µM,> 100 µM,> 100 µM,> 100 µM,> 100 µM,,,,,,
COC(CCC[N+](C)(C)C)CC[N+](C)(C)C (stereo unspecified),> 100 µM,> 100 µM,> 100 µM,> 100 µM,,> 100 µM,,,,,,
CCCCCCc1cc2cc(-c3csc(CC#N)n3)c(=O)oc2cc1O,> 100 µM,> 100 µM,> 100 µM,> 100 µM,> 100 µM,> 100 µM,,,,,,
CN(C(=O)C(Cc1ccccc1)NC(=O)OC(C)(C)C)C1(C(=O)NC(Cc2ccccc2)C(=O)OCc2ccccc2)CCCC1 (stereo not drawn) (Boc-Phe-[NMeAc5c]-Phe-OBn; configuration not given here),57.2 µM,> 100 µM,> 100 µM,> 100 µM,> 100 µM,> 100 µM,,,,,,
O=C1/C(=C\c2ccccc2)C(NC2CCCCC2)c2ccccc21 (stereo unspecified),2.42 µM,33.5 µM,2.51 µM,3.78 µM,4.69 µM,98.5 µM,,,,,,
COc1cccc(C(=O)O[C@H]2[C@@H]3[C@]4(OC(C)=O)CO[C@@H]4C[C@H](O)[C@@]3(C)C(=O)[C@H](OC(C)=O)C3=C(C)[C@@H](OC(=O)[C@H](O)[C@@H](NC(=O)OC(C)(C)C)c4ccco4)C[C@]2(O)C3(C)C)c1,,0.151 µM,< 0.00375 µM,,,> 18.3 µM,,,,,,
C=CC1(C)CCC2C(=CCC3C2(C)CC(O)C(O)C3(C)COC2OC(C(=O)O)C(O)C(O)C2O)C1 (stereo unspecified) (tested in a mixture with another compound),> 100 µM,> 100 µM,> 100 µM,> 100 µM,> 100 µM,,,,,,,
O=C1CCCSC(=O)N1Cc1ccccc1,,> 100 µM,> 100 µM,> 100 µM,> 100 µM,> 100 µM,,,,,,
CN(C)C(=O)O/N=C1/C(c2c(O)[nH]c3ccccc23)=Nc2ccccc21,> 100 µM,68.8 µM,57 µM,,50.6 µM,> 100 µM,,,,,,
N#Cc1c(-c2ccccc2)/c(=C\Nc2cccc(C(F)(F)F)c2)c(=O)n2c1nc1ccccc12,39.9 µM,> 100 µM,,> 100 µM,> 100 µM,80.4 µM,,,,,,
COCO[C@@H]1C[C@H]2C(=O)Nc3ccccc3C(=O)N2C1,,> 100 µM,,> 100 µM,> 100 µM,> 100 µM,,,,,,
COc1cc(C(=O)N(C(=S)OCc2ccccn2)c2ccccc2)cc(OC)c1OC,99.8 µM,,> 100 µM,> 100 µM,> 100 µM,> 100 µM,,,,,,
